Data as given in US11986647B2, “Treating autoinflammatory and mitochondrial diseases using an alternating electric field” (Novocure GmbH, priority 2018, dated 2024).
Several values for one entry are separate records, joined by “and”; a condition that tells them apart may be missing. Equal values may be shown once.

Key:
UW228-3 cells = conditions: human, 72 h
Description: (§1) Cells were treated with TMZ (Sigma-Aldrich), Paclitaxel (Sigma-Aldrich) and Mebendazole (Sigma-Aldrich) as a monotherapy or in combination with TTFields. Each of the drugs were administered at their IC50 (high dose) or 10% IC50 (low dose), with the IC50s being determined through drug-response curves.
(§2) TTFields were applied using the Inovitro™ system (Novocure, Haifa). The system consists of two pairs of perpendicular transducer arrays on the outer walls of a ceramic Petri dish. A sinusoidal waveform generator was attached to the transducer arrays to produce alternating electric fields at frequencies between 100-400 kHz and 1.75V/cm intensity. The electric fields alternated orientation of 90° every second. The temperature was measured to be 37° C. inside the dishes by 2 thermistors attached to the ceramic walls.
(§3) PrestoBlue™ was added to each sample at a time-point at a 1:10 dilution. Samples were incubated at 37° C. for 30 minutes. 100 μ1 (triplicate) of the PrestoBlue solution was transferred to a black-bottomed 96-well plate and fluorescence was analyzed via UV-Vis Spectroscopy at excitation/emission wavelengths at 560/590 nm with the FLUOstar Omega (BMG Labtech).

SF188 cells = conditions: human, 72 h
Description: as §1, §2, §3

brain tumor cell lines = test: IC50 determination through drug-response curves; format: cell-based; conditions: range across the brain tumor cell lines
Description: as §1, §3

BXD-1425EPN cells = conditions: human, 72 h
Description: as §1, §2, §3

Row | IC50 (brain tumor cell lines) | Compound | reduction of cell viability (UW228-3 cells) [%] | reduction of cell viability (SF188 cells) [%] | reduction of cell viability (BXD-1425EPN cells) [%]
1 | 30 to 1200 nM and 20 to 1200 nM | COC(=O)Nc1nc2ccc(C(=O)c3ccccc3)cc2[nH]1 [Mebendazole] | 28 | 39 | 30
2 | 0.36 to 4.6 nM and 0.4 to 4.6 nM | CC(=O)O[C@H]1C(=O)[C@@]2(C)[C@H]([C@H](OC(=O)c3ccccc3)[C@]3(O)C[C@H](OC(=O)[C@H](O)[C@@H](NC(=O)c4ccccc4)c4ccccc4)C(C)=C1C3(C)C)[C@]1(OC(C)=O)CO[C@@H]1C[C@@H]2O [Paclitaxel] | 32 | 30 | 23
